These results are taken from the NIST ThermoML archive (doi:10.1021/acs.jced.5b00662).

“And” between values parts separate entries of the source, which are not always exact repeats. Equal values may be shown once. ± gives the expanded uncertainty stated by the source.

The conditions of the first series: 338.15 K; 101.33 kPa; Liquid; Concentric cylinders viscometry.
In general, viscosity refers to the internal friction of a fluid under shear. Regarding `OCCOCCOCCO` [triethylene glycol], the viscosity came out at 8.221 ± 0.33 mPa·s.
Still for that read-out and setting: for `CCOCCOCCOCC` [diethylene glycol diethyl ether] the value was 0.699 ± 0.029 mPa·s; for `COCCOCCO` [2-(2-methoxyethoxy)ethanol], 1.489 ± 0.061 mPa·s; for `COCCOCCOCCOC` [2,5,8,11-tetraoxadodecane], 1.026 ± 0.042 mPa·s.
On the same count and under the same terms, for `OCCO` [1,2-ethanediol] the value was 4.555 ± 0.18 mPa·s.

Still in this series, the particulars now being: 338.15 K; 101.33 kPa; Liquid; Vibrating tube method.
By mass density is commonly meant the mass of a sample divided by its volume. In the case of `OCCOCCOCCO` [triethylene glycol], the mass density is recorded as 1089.5 ± 2 kg/m3.
The same measure, in the same setting: for `CCOCCOCCOCC` [diethylene glycol diethyl ether] the value was 865.9 ± 4 kg/m3.
Same read-out and setting: for `COCCOCCO` [2-(2-methoxyethoxy)ethanol] the value was 981 ± 2 kg/m3; for `COCCOCCOCCOC` [2,5,8,11-tetraoxadodecane], 943.3 ± 2 kg/m3.
The same measure, in the same setting: with `OCCO` [1,2-ethanediol] the figure was 1082.6 ± 1 kg/m3.

Still in this series, the particulars now being: 343.15 K; 101.33 kPa; Liquid; Concentric cylinders viscometry.
With `OCCOCCOCCO` [triethylene glycol], the viscosity is given as 7.137 ± 0.29 mPa·s.
Same read-out and setting: for `CCOCCOCCOCC` [diethylene glycol diethyl ether] the value was 0.658 ± 0.028 mPa·s.
Same read-out and setting: with `COCCOCCO` [2-(2-methoxyethoxy)ethanol] the figure was 1.372 ± 0.056 mPa·s; with `COCCOCCOCCOC` [2,5,8,11-tetraoxadodecane], 0.962 ± 0.039 mPa·s.
On the same count and under the same terms, with `OCCO` [1,2-ethanediol] the figure was 4.01 ± 0.16 mPa·s.

Still in this series, the particulars now being: 343.15 K; 101.33 kPa; Liquid; Sing-around technique in a fixed-path interferometer.
For orientation: speed of sound means the propagation velocity of pressure waves in the medium. Consider `OCCOCCOCCO` [triethylene glycol], for which the speed of sound came to 1477.5 ± 1.6 m/s.
Still for that read-out and setting: for `CCOCCOCCOCC` [diethylene glycol diethyl ether] the value was 1071.6 ± 2.3 m/s.
Still for that read-out and setting: for `COCCOCCO` [2-(2-methoxyethoxy)ethanol] the value was 1262.7 ± 1.5 m/s.
Still for that read-out and setting: with `COCCOCCOCCOC` [2,5,8,11-tetraoxadodecane] the figure was 1174 ± 1.5 m/s.
For `OCCO` [1,2-ethanediol], the speed of sound is listed as 1547.4 ± 1.3 m/s.

Staying with this series, now noted: 343.15 K; 101.33 kPa; Liquid; Vibrating tube method.
In the case of `OCCOCCOCCO` [triethylene glycol], the mass density is 1085.6 ± 2 kg/m3 and 1084.5 ± 2 kg/m3.
The same measure, in the same setting: with `CCOCCOCCOCC` [diethylene glycol diethyl ether] the figure was 861 ± 4 kg/m3 and 858.9 ± 4 kg/m3; with `COCCOCCO` [2-(2-methoxyethoxy)ethanol], 976.5 ± 2 kg/m3 and 975 ± 2 kg/m3.
The same measure, in the same setting: for `COCCOCCOCCOC` [2,5,8,11-tetraoxadodecane] the value was 938.6 ± 2 kg/m3 and 936.9 ± 2 kg/m3; for `OCCO` [1,2-ethanediol], 1078.9 ± 1 kg/m3 and 1077.5 ± 1 kg/m3.

Staying with this series, now noted: 348.15 K; 101.33 kPa; Liquid; Concentric cylinders viscometry.
`OCCOCCOCCO` [triethylene glycol]: the viscosity turned out to be 6.243 ± 0.25 mPa·s.
Same read-out and setting: with `CCOCCOCCOCC` [diethylene glycol diethyl ether] the figure was 0.621 ± 0.026 mPa·s.
The same measure, in the same setting: for `COCCOCCO` [2-(2-methoxyethoxy)ethanol] the value was 1.268 ± 0.052 mPa·s.
On to `COCCOCCOCCOC` [2,5,8,11-tetraoxadodecane], for which the viscosity amounted to 0.903 ± 0.037 mPa·s.
For the molecule `OCCO` [1,2-ethanediol], the viscosity stood at 3.552 ± 0.14 mPa·s.

The series is the same for the next values; noted with them: 348.15 K; 101.33 kPa; Liquid; Vibrating tube method.
As to `OCCOCCOCCO` [triethylene glycol], the mass density is 1081.7 ± 2 kg/m3.
Still for that read-out and setting: for `CCOCCOCCOCC` [diethylene glycol diethyl ether] the value was 856.1 ± 4 kg/m3; for `COCCOCCO` [2-(2-methoxyethoxy)ethanol], 971.8 ± 2 kg/m3.
Same read-out and setting: with `COCCOCCOCCOC` [2,5,8,11-tetraoxadodecane] the figure was 933.8 ± 2 kg/m3.
The same measure, in the same setting: with `OCCO` [1,2-ethanediol] the figure was 1075.2 ± 1 kg/m3.

Staying with this series, now noted: 353.15 K; 101.33 kPa; Liquid; Concentric cylinders viscometry.
For `OCCOCCOCCO` [triethylene glycol], the viscosity came out at 5.487 ± 0.22 mPa·s.
`CCOCCOCCOCC` [diethylene glycol diethyl ether]: the viscosity stood at 0.587 ± 0.025 mPa·s.
Still for that read-out and setting: for `COCCOCCO` [2-(2-methoxyethoxy)ethanol] the value was 1.155 ± 0.047 mPa·s; for `COCCOCCOCCOC` [2,5,8,11-tetraoxadodecane], 0.814 ± 0.033 mPa·s.
Still for that read-out and setting: for `OCCO` [1,2-ethanediol] the value was 3.161 ± 0.13 mPa·s.

Staying with this series, now noted: 353.15 K; 101.33 kPa; Liquid; Vibrating tube method.
Turning to `OCCOCCOCCO` [triethylene glycol], the mass density is listed as 1077.8 ± 2 kg/m3.
The same measure, in the same setting: for `CCOCCOCCOCC` [diethylene glycol diethyl ether] the value was 851.2 ± 4 kg/m3.
Turning to `COCCOCCO` [2-(2-methoxyethoxy)ethanol], the mass density is 967.2 ± 2 kg/m3.
Same read-out and setting: with `COCCOCCOCCOC` [2,5,8,11-tetraoxadodecane] the figure was 929 ± 2 kg/m3; with `OCCO` [1,2-ethanediol], 1071.5 ± 1 kg/m3.

The series is the same for the next values; noted with them: 358.15 K; 101.33 kPa; Liquid; Concentric cylinders viscometry.
Take `OCCOCCOCCO` [triethylene glycol]: the viscosity stood at 4.874 ± 0.2 mPa·s.
The same measure, in the same setting: with `CCOCCOCCOCC` [diethylene glycol diethyl ether] the figure was 0.556 ± 0.023 mPa·s.
Consider `COCCOCCO` [2-(2-methoxyethoxy)ethanol], for which the viscosity is given as 1.094 ± 0.045 mPa·s.
On the same count and under the same terms, with `COCCOCCOCCOC` [2,5,8,11-tetraoxadodecane] the figure was 0.801 ± 0.033 mPa·s; with `OCCO` [1,2-ethanediol], 2.835 ± 0.11 mPa·s.

Still in this series, the particulars now being: 358.15 K; 101.33 kPa; Liquid; Vibrating tube method.
As to `OCCOCCOCCO` [triethylene glycol], the mass density turned out to be 1073.8 ± 2 kg/m3.
The same measure, in the same setting: for `CCOCCOCCOCC` [diethylene glycol diethyl ether] the value was 846.3 ± 4 kg/m3.
On the same count and under the same terms, for `COCCOCCO` [2-(2-methoxyethoxy)ethanol] the value was 962.5 ± 2 kg/m3; for `COCCOCCOCCOC` [2,5,8,11-tetraoxadodecane], 924.2 ± 2 kg/m3.
Still for that read-out and setting: for `OCCO` [1,2-ethanediol] the value was 1067.8 ± 1 kg/m3.

Still in this series, the particulars now being: 363.15 K; 101.33 kPa; Liquid; Concentric cylinders viscometry.
As to `OCCOCCOCCO` [triethylene glycol], the viscosity worked out at 4.346 ± 0.18 mPa·s.
On the same count and under the same terms, with `CCOCCOCCOCC` [diethylene glycol diethyl ether] the figure was 0.526 ± 0.022 mPa·s; with `COCCOCCO` [2-(2-methoxyethoxy)ethanol], 1.019 ± 0.042 mPa·s.
On to `COCCOCCOCCOC` [2,5,8,11-tetraoxadodecane], for which the viscosity amounted to 0.756 ± 0.031 mPa·s.
The same measure, in the same setting: for `OCCO` [1,2-ethanediol] the value was 2.552 ± 0.1 mPa·s.

Staying with this series, now noted: 363.15 K; 101.33 kPa; Liquid; Vibrating tube method.
As to `OCCOCCOCCO` [triethylene glycol], the mass density was determined as 1069.8 ± 2 kg/m3.
The same measure, in the same setting: with `CCOCCOCCOCC` [diethylene glycol diethyl ether] the figure was 841.4 ± 4 kg/m3.
Same read-out and setting: for `COCCOCCO` [2-(2-methoxyethoxy)ethanol] the value was 957.9 ± 2 kg/m3; for `COCCOCCOCCOC` [2,5,8,11-tetraoxadodecane], 919.4 ± 2 kg/m3; for `OCCO` [1,2-ethanediol], 1064 ± 1 kg/m3.

Still in this series, the particulars now being: 368.15 K; 101.33 kPa; Liquid; Concentric cylinders viscometry.
Take `OCCOCCOCCO` [triethylene glycol]: the viscosity is 3.896 ± 0.16 mPa·s.
The same measure, in the same setting: with `CCOCCOCCOCC` [diethylene glycol diethyl ether] the figure was 0.498 ± 0.021 mPa·s.
Same read-out and setting: for `COCCOCCO` [2-(2-methoxyethoxy)ethanol] the value was 0.95 ± 0.039 mPa·s; for `COCCOCCOCCOC` [2,5,8,11-tetraoxadodecane], 0.715 ± 0.029 mPa·s; for `OCCO` [1,2-ethanediol], 2.306 ± 0.093 mPa·s.

Still in this series, the particulars now being: 368.15 K; 101.33 kPa; Liquid; Vibrating tube method.
`OCCOCCOCCO` [triethylene glycol]: the mass density is reported as 1065.9 ± 2 kg/m3.
`CCOCCOCCOCC` [diethylene glycol diethyl ether]: the mass density is 836.5 ± 4 kg/m3.
The same measure, in the same setting: for `COCCOCCO` [2-(2-methoxyethoxy)ethanol] the value was 953.1 ± 2 kg/m3; for `COCCOCCOCCOC` [2,5,8,11-tetraoxadodecane], 914.5 ± 2 kg/m3.
Regarding `OCCO` [1,2-ethanediol], the mass density was found to be 1060.2 ± 1 kg/m3.

Still in this series, the particulars now being: 373.15 K; 101.33 kPa; Liquid; Concentric cylinders viscometry.
Turning to `OCCOCCOCCO` [triethylene glycol], the viscosity came out at 3.515 ± 0.14 mPa·s.
Same read-out and setting: with `CCOCCOCCOCC` [diethylene glycol diethyl ether] the figure was 0.47 ± 0.02 mPa·s.
Turning to `COCCOCCO` [2-(2-methoxyethoxy)ethanol], the viscosity was 0.877 ± 0.036 mPa·s.
On the same count and under the same terms, with `COCCOCCOCCOC` [2,5,8,11-tetraoxadodecane] the figure was 0.65 ± 0.027 mPa·s; with `OCCO` [1,2-ethanediol], 2.102 ± 0.085 mPa·s.

The same series, now with this note: 373.15 K; 101.33 kPa; Liquid; Vibrating tube method.
For `OCCOCCOCCO` [triethylene glycol], the mass density stood at 1061.9 ± 2 kg/m3.
Turning to `CCOCCOCCOCC` [diethylene glycol diethyl ether], the mass density came out at 831.6 ± 4 kg/m3.
In the case of `COCCOCCO` [2-(2-methoxyethoxy)ethanol], the mass density was determined as 948.5 ± 2 kg/m3.
Turning to `COCCOCCOCCOC` [2,5,8,11-tetraoxadodecane], the mass density was determined as 909.7 ± 2 kg/m3.
The same measure, in the same setting: with `OCCO` [1,2-ethanediol] the figure was 1056.4 ± 1 kg/m3.
